Experimental data: patent US20110033904A1, “METHOD FOR PREPARING ORTHODIHYDROXYISOFLAVONES USING A BIOTRANSFORMATION SYSTEM” (priority 2008, published 2011)

Test system: C57BL/6 mouse melanocyte cells (MeI-Ab cells)
Experiment: Melanin production inhibitory effects using MeI-Ab cells (Dooley's method)
Assay type: cell-based
Conditions: substances added during 3 days from day 2 of culture, absorbance at 400 nm, hydroquinone 100 ppm
Procedure: The melanin production inhibitory effects of the ODIs obtained in Examples 1 and 2 were measured using MeI-Ab cells.
First, C57BL/6 mouse melanocyte cells (MeI-Ab cells) (Dooley, T. P. et al, Skin pharmacol, 7, pp 188-200) were cultured in a DMEM (Dulbeccos modified Eagles media) medium containing 10% fetal bovine serum, 100 nM 2-O-tetradecanoylphorbol-13-acetate and 1 nM cholera toxin in conditions of 37° C. and 5% CO2. The cultured MeI-Ab cells were detached by 0.25% trypsin-EDTA and cultured in a 24-well plate at a concentration of 10^5 cells/well. During the culture period, 100 ppm hydroquinone and each of the ODIs obtained in Examples 1 and 2 were added to the cells continuously during 3 days from 2 days after the start of the culture. Herein, the hydroquinone was used as a positive control group. The culture broth was collected and washed, and the cells were lysed with 1N sodium hydroxide and measured for absorbance at 400 nm.
Melanin production inhibition (%)=100−(absorbance of each test substance/absorbance of control group×100) [Math Figure 1]

| Structure (SMILES) | Melanin production inhibition (%) | inhibition at 100 ppm (Mus musculus, Melanocyte) [%] |
| --- | --- | --- |
| O=c1c(-c2ccc(O)c(O)c2)coc2cc(O)ccc12 [7,3′,4′-trihydroxyisoflavone] | 38.7 | – |
| O=c1c(-c2ccc(O)c(O)c2)coc2cc(O)cc(O)c12 [7,5,3′,4′-tetrahydroxyisoflavone] | 40.8 | – |
| O=c1c(-c2ccc(O)cc2)coc2cc(O)c(O)cc12 [7,6,4′-trihydroxyisoflavone] | 38.8 | – |
| O=c1c(-c2ccc(O)cc2)coc2c(O)c(O)ccc12 [7,8,4′-trihydroxyisoflavone] | 39.8 | – |
| Oc1ccc(O)cc1 [Hydroquinone, hydroquinone, reference compound] | – | 41.1 |
